Laboratory results published in ChEMBL document CHEMBL1201862, “PubChem BioAssay data set” (2004).
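Exposure lasted 48 hours, with cells grown in 96-well plates and compounds tested at five concentrations. GI50 = concentration required for 50% inhibition of growth.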 Calls of active or inactive are those of the source. Cut-off read from the data, not from the text of the source: active = GI50 up to about 1.1 µM and inactive = higher.

Columns and labels:
Test in all cases: inhibition of tumour cell growth, NCI panel, 48 h
T47D = system: T47D
SNB-19 = system: SNB-19
OVCAR-3 = system: OVCAR-3
M14 = system: M14
MOLT-4 = system: MOLT-4
RXF 393 = system: RXF 393
COLO 205 = system: COLO 205
OVCAR-8 = system: OVCAR-8
SR = system: SR
Malme-3M = system: Malme-3M
MDA-MB-231 = system: MDA-MB-231
HCT-116 = system: HCT-116
DU-145 = system: DU-145
SNB-75 = system: SNB-75
NCI-H522 = system: NCI-H522
UACC-257 = system: UACC-257
HOP-62 = system: HOP-62
NCI-H23 = system: NCI-H23
NCI/ADR-RES = system: NCI/ADR-RES
786-0 = system: 786-0
Hs-578T = system: Hs-578T
HCT-15 = system: HCT-15
U-251 = system: U-251
HOP-92 = system: HOP-92
IGROV-1 = system: IGROV-1
HCC 2998 = system: HCC 2998
KM12 = system: KM12
K562 = system: K562
HL-60 = system: HL-60
MDA-MB-435 = system: MDA-MB-435
MCF7 = system: MCF7
CCRF-CEM = system: CCRF-CEM
EKVX = system: EKVX
UACC-62 = system: UACC-62
NCI-H460 = system: NCI-H460
SF-295 = system: SF-295
A498 = system: A498
SN12C = system: SN12C
LOX IMVI = system: LOX IMVI
SF-539 = system: SF-539
OVCAR-4 = system: OVCAR-4
ACHN = system: ACHN
TK-10 = system: TK-10
NCI-H226 = system: NCI-H226
SK-OV-3 = system: SK-OV-3
SF-268 = system: SF-268
HT-29 = system: HT-29
SK-MEL-28 = system: SK-MEL-28
OVCAR-5 = system: OVCAR-5
SW-620 = system: SW-620
A549 = system: A549
CAKI-1 = system: CAKI-1
MDA-N = system: MDA-N
RPMI-8226 = system: RPMI-8226
UO-31 = system: UO-31
SK-MEL-2 = system: SK-MEL-2
PC-3 = system: PC-3
SK-MEL-5 = system: SK-MEL-5

CCOC(=O)c1c(SC(=O)C(C)(C)Oc2ccc(Cl)cc2)n(-c2ccccc2)c(=S)n(-c2ccccc2)c1=O
GI50 (T47D): 84.5 µM (inactive)
GI50 (SNB-19): 31.6 µM (inactive)
GI50 (OVCAR-3): 32.1 µM (inactive)
GI50 (M14): 30.3 µM (inactive)
GI50 (MOLT-4): 24.9 µM (inactive)
GI50 (RXF 393): 25.1 µM (inactive)
GI50 (COLO 205): 20.7 µM (inactive)
GI50 (OVCAR-8): 19.6 µM (inactive)
GI50 (SR): 23.9 µM (inactive)
GI50 (Malme-3M): 23 µM (inactive)
GI50 (MDA-MB-231): 26.6 µM (inactive)
GI50 (HCT-116): 22.4 µM (inactive)
GI50 (DU-145): 45.2 µM (inactive)
GI50 (SNB-75): 51.4 µM (inactive)
GI50 (NCI-H522): 39.8 µM (inactive)
GI50 (UACC-257): > 100 µM (inactive)
GI50 (HOP-62): 26 µM (inactive)
GI50 (NCI-H23): 61.7 µM (inactive)
GI50 (NCI/ADR-RES): 58.6 µM (inactive)
GI50 (786-0): 27.6 µM (inactive)
GI50 (Hs-578T): 26.9 µM (inactive)
GI50 (HCT-15): 60.4 µM
GI50 (U-251): 19.6 µM (inactive)
GI50 (HOP-92): 35.6 µM (inactive)
GI50 (IGROV-1): 20.1 µM (inactive)
GI50 (HCC 2998): > 100 µM (inactive)
GI50 (KM12): 24.8 µM (inactive)
GI50 (K562): 30.8 µM (inactive)
GI50 (HL-60): 19.5 µM (inactive)
GI50 (MDA-MB-435): 33 µM (inactive)
GI50 (MCF7): 21.5 µM (inactive)
GI50 (CCRF-CEM): 30.1 µM (inactive)
GI50 (EKVX): 52.8 µM (inactive)
GI50 (UACC-62): 67.8 µM (inactive)
GI50 (NCI-H460): 22.1 µM (inactive)
GI50 (SF-295): 59.2 µM (inactive)
GI50 (A498): 52.7 µM (inactive)
GI50 (SN12C): 25.2 µM (inactive)
GI50 (LOX IMVI): 31.8 µM (inactive)
GI50 (SF-539): 22.9 µM (inactive)
GI50 (OVCAR-4): 34.4 µM (inactive)
GI50 (ACHN): 23.3 µM (inactive)
GI50 (TK-10): 89.5 µM (inactive)
GI50 (NCI-H226): 40 µM (inactive)
GI50 (SK-OV-3): 45.6 µM (inactive)
GI50 (SF-268): 20.2 µM (inactive)
GI50 (HT-29): 27.4 µM (inactive)
GI50 (SK-MEL-28): 62.5 µM (inactive)
GI50 (OVCAR-5): 67 µM (inactive)
GI50 (SW-620): 22.6 µM (inactive)
GI50 (A549): 26.9 µM (inactive)
GI50 (CAKI-1): > 100 µM (inactive)
GI50 (MDA-N): 48.8 µM (inactive)

CC(C)(C)c1ccc(/C=N/NC(=O)CSCC(=O)N/N=C/c2ccc(C(C)(C)C)cc2)cc1
GI50 (T47D): 4.88 µM (inactive)
GI50 (SNB-19): 2.93 µM (inactive)
GI50 (M14): 1.57 µM (inactive)
GI50 (MOLT-4): 2.12 µM (inactive)
GI50 (RXF 393): 2.15 µM (inactive)
GI50 (COLO 205): 1.17 µM (inactive)
GI50 (OVCAR-8): 2.63 µM (inactive)
GI50 (SR): 1.7 µM (inactive)
GI50 (Malme-3M): 9.1 µM (inactive)
GI50 (MDA-MB-231): 0.22 µM (active)
GI50 (HCT-116): 2.03 µM (inactive)
GI50 (DU-145): 5.83 µM (inactive)
GI50 (SNB-75): 5.32 µM (inactive)
GI50 (RPMI-8226): 2.77 µM (inactive)
GI50 (UO-31): 3.71 µM (inactive)
GI50 (NCI-H522): 4.47 µM (inactive)
GI50 (UACC-257): 3.02 µM (inactive)
GI50 (SK-MEL-2): 2.28 µM (inactive)
GI50 (HOP-62): 2.96 µM (inactive)
GI50 (NCI-H23): 2.5 µM (inactive)
GI50 (NCI/ADR-RES): 4.26 µM (inactive)
GI50 (786-0): 1.95 µM (inactive)
GI50 (Hs-578T): 3.17 µM (inactive)
GI50 (HCT-15): 4.14 µM
GI50 (U-251): 1.61 µM (inactive)
GI50 (HOP-92): 2.49 µM (inactive)
GI50 (IGROV-1): 0.64 µM (active)
GI50 (PC-3): 2.8 µM (inactive)
GI50 (HCC 2998): 2.73 µM (inactive)
GI50 (KM12): 2.53 µM (inactive)
GI50 (K562): 2.55 µM (inactive)
GI50 (HL-60): 1.72 µM (inactive)
GI50 (MCF7): 2.28 µM (inactive)
GI50 (EKVX): 2.65 µM (inactive)
GI50 (UACC-62): 16.4 µM (inactive)
GI50 (NCI-H460): 3.61 µM (inactive)
GI50 (A498): 1.46 µM (inactive)
GI50 (SN12C): 1.77 µM (inactive)
GI50 (SF-539): 2.12 µM (inactive)
GI50 (OVCAR-4): 3.88 µM (inactive)
GI50 (ACHN): 2.93 µM (inactive)
GI50 (TK-10): 5.21 µM (inactive)
GI50 (NCI-H226): 2.09 µM (inactive)
GI50 (SK-OV-3): 5.61 µM (inactive)
GI50 (SK-MEL-5): 1.87 µM (inactive)
GI50 (SF-268): 1.9 µM (inactive)
GI50 (HT-29): 1.83 µM (inactive)
GI50 (SK-MEL-28): 6.17 µM (inactive)
GI50 (OVCAR-5): 3.03 µM (inactive)
GI50 (SW-620): 2.59 µM (inactive)
GI50 (A549): 2.86 µM (inactive)

CC[C@@]1(O)C(=O)OCc2c1cc1n(c2=O)Cc2c-1nc1ccccc1c2/C=N/c1ccccc1N[C@@H]1c2cc3c(cc2[C@@H](c2cc(OC)c(O)c(OC)c2)[C@H]2C(=O)OC[C@@H]21)OCO3
GI50 (T47D): 0.0236 µM (active)
GI50 (M14): 0.04 µM (active)
GI50 (MOLT-4): < 0.01 µM (active)
GI50 (Malme-3M): 0.394 µM (active)
GI50 (HCT-116): 0.0469 µM (active)
GI50 (SNB-75): 0.051 µM (active)
GI50 (RPMI-8226): 0.27 µM (active)
GI50 (UACC-257): 0.412 µM (active)
GI50 (HOP-62): < 0.0189 µM (active)
GI50 (786-0): 0.0213 µM (active)
GI50 (U-251): 0.296 µM (active)
GI50 (HOP-92): 0.224 µM (active)
GI50 (PC-3): 0.284 µM (active)
GI50 (MCF7): < 0.0115 µM (active)
GI50 (UACC-62): 0.0264 µM (active)
GI50 (NCI-H460): < 0.01 µM (active)
GI50 (LOX IMVI): 0.0138 µM (active)
GI50 (ACHN): < 0.0145 µM (active)
GI50 (NCI-H226): 0.0702 µM (active)
GI50 (SK-MEL-5): 0.0955 µM (active)
GI50 (SF-268): 0.0285 µM (active)
GI50 (SW-620): 0.132 µM (active)
GI50 (A549): 0.0411 µM (active)
GI50 (CAKI-1): 0.0225 µM (active)
